Columns and labels:
HEK293 cells = assay: Fatty acid uptake assay using HEK293 cells; format: cell-based; conditions: Homo sapiens, CPT1 inhibitor, racemic mixture, FIG. 1
Procedure: HEK293 cells were thawed and centrifuged at 400 g in 1 min, whereafter the supernatant was discarded. The cells were resuspended in DMEM+GlutaMax medium (cat #10566016, Invitrogen) containing 10% fetal calf serum (cat #10270-106, Invitrogen) and 1% penicillin/streptomycin (cat #15140-122, Life Technologies). HEK293 cells were seeded into a T25 flask and incubated at 37 degrees Celsius until 80% confluency. When the HEK293 cells reached confluency, cells were counted and seeded in a 96-well plate and with a volume of 10.000 cells/well in medium (as described above) and incubated overnight. Three wells were without cells serving as controls.
The cells were divided into two groups: 1) Example 1, and 2) Untreated. The fatty acid uptake assay (cat #408-100, BioVision) was carried out according to the protocol from BioVision. The only exception to the protocol was that the measurements in the PerkinElmer Multimode Plate Reader Enspire instrument was running overnight.
Statistics was performed in GraphPad Prism version 8.0. Repeated measure two-way ANOVA were conducted as the groups were tested multiple times followed by a multiple comparison Bonferroni post hoc test.

SOD1 G93A mice = assay: Efficacy study (survival) in SOD1 G93A mouse model of ALS; format: in vivo; conditions: compared to vehicle, Edaravone and Riluzole, survival = neurological score below 4, FIG. 2
Procedure: All experiments were approved by the Danish Animal Experiment Inspectorate (2017-15-0202-00088) and followed the National and European guidelines for conducting animal experiments. Animal experiments was conducted according to the ARRIVE guidelines. Mice were housed in IVC cages in a high barrier facility at Aalborg University, Denmark with a room temperature of 21° C. The mice were kept at a 12-hour light/dark cycle and had ad libitum access to food and water.
B6.Cg-Tg(SOD1*G93A)1Gur/J mice (Stock #004435) (SOD1) were purchased from Jackson Laboratory (Bar Harbor, USA). The congenic SOD1 mice were maintained in our animal facility by crossing hemizygote SOD1 male mice with female C57BI/6J mice. Litters were genotyped according to established protocol using DNA extracted from ear tissue punches. Male SOD1 mice were used to maintain the colony, and SOD1 female and their wildtype littermates were used for experiments. All animals were assessed for human endpoints daily, weight twice a week, and neurological score once a week. SOD1 females (n=4) were evaluated at baseline and day 128 for cylinder, dark-light and y-maze tests, and at baseline and day 142 by neurological score, grip strength, hangwire test and rotarod. […] In addition, survival was evaluated as described under neurological score, onset of disease and survival analysis.
Mice were evaluated by the same experimenter weekly. […]

## CC(=O)N1CCC(c2nc(-c3ccncc3)cs2)N(C(=O)COc2ccccc2)CC1 (single isomer, unassigned) [Example 1, 1-(4-acetyl-7-(4-(pyridin-4-yl)thiazol-2-yl)-1,4-diazepan-1-yl)-2-phenoxyethan-1-one]
HEK293 cells
  IC50: 300 nM

## CC(=O)N1CCC(c2nc(-c3ccncc3)cs2)N(C(=O)COc2ccccc2)CC1 (single isomer, unassigned) [Example 1-E2]
SOD1 G93A mice
  survival: improved survival

## CC(=O)N1CCC(c2nc(-c3ccncc3)cs2)N(C(=O)COc2ccccc2)CC1 (single isomer, unassigned) [Example 1-E1]
SOD1 G93A mice
  survival: improved survival

From patent US20240246957A1, “Diazepane Derivatives, Processes for their Preparation, and Uses thereof for the Amelioration, Prevention and/or Treatment of Mental and Neurological Diseases” (2N Pharma ApS, priority 2021, published 2024)
